Measurements taken from patent US20060110449A1, “Pharmaceutical composition” (priority 2004, published 2006).
Values belong to the compound of their own block, whether it stands above or below them.

Tests used:
[1] = test system: secretions of natural tear components; conditions: preclinical testing, reportedly; cited from earlier work
[2] = test system: subjects with Seasonal Allergic Rhinitis (SAR) and Post-Nasal Drip; assay: Phase II randomized, double-blind, placebo controlled study: symptom scores (post nasal drip, anterior rhinorrhea, total symptom score); conditions: for least square mean change from baseline in the average AM/PM PRIOR post nasal drip score, percent / least square mean change from baseline in the average AM/PM PRIOR post nasal drip score: 7-day Treatment Phase, Oxy 5 mg BID, combinations given concurrently BID; for least square mean change from baseline in the average AM/PM PRIOR post nasal drip score: all randomized subjects; for anterior rhinorrhea treatment difference vs. placebo: key secondary efficacy variable, BID, DL 2.5 mg, Oxy 5 mg
Text: (§1) The total target enrollment was 500 subjects with 100 per arm. The study consisted of a 7-day Treatment Phase.
The primary efficacy variable was the change from baseline in the average AM/PM PRIOR post nasal drip score over the Treatment Phase of 7 days. The analysis was based on a main effect analysis of variance (ANOVA), which extracted sources of variation due to treatment and center. […] Pairwise treatment comparisons were examined using the 95% confidence intervals of the treatment differences at an unadjusted 2-sided alpha-level of 0.05.
After the examination of post nasal drip, the key secondary efficacy variable, anterior rhinorrhea, was examined in the same manner.
There were 38 subjects excluded from the efficacy evaluable subset. A majority of these subjects were excluded due to insufficient efficacy data. Determination of evaluability was perfomed prior to unblinding the database. Though the treatment duration specified in the protocol was 7 days, about 70% of subjects also completed their diary on the AM of Day 8 since the final office visit was scheduled on that day. Therefore, the AM Day 8 data were included in the calculation of the one-week average.
The primary efficacy variable was the change from baseline in the average AM/PM PRIOR post nasal drip score over the Treatment Phase of 7 days.

[3] = DL 2.5 mg BID, Oxy 5 mg BID, combinations BID; 7 days
Text: as §1

[4] = test system: symptoms most closely associated with chronic nasal congestion (e.g., stuffy nose); conditions: reportedly; cited from earlier work

Compound: O=c1ccn([C@@H]2O[C@H](COP(=O)(O)OP(=O)(O)OP(=O)(O)OP(=O)(O)OC[C@H]3O[C@@H](n4ccc(=O)[nH]c4=O)[C@H](O)[C@@H]3O)[C@@H](O)[C@H]2O)c(=O)[nH]1 [diquafosol, Diquafosol tetrasodium]
secretions of natural tear components [1]: increased

discontinuation rate from the treatment phase [3]: 5.56% | percentage of subjects reporting dry mouth [3]: 13.9% | subjects reporting dry mouth [3]: 15 subjects
Compound: CCN(CC)CC#CCOC(=O)C(O)(c1ccccc1)C1CCCCC1 (centres unmarked) [Oxy, Oxybutynin]
least square mean change from baseline in the average AM/PM PRIOR post nasal drip score, percent ([2]; DL 2.5 mg BID): −17.8% | least square mean change from baseline in the average AM/PM PRIOR post nasal drip score ([2]; DL 2.5 mg BID): −0.49 | anterior rhinorrhea treatment difference vs. placebo ([2]; 7 days): 0.04 points | percentage of subjects reporting any treatment emergent adverse events [3]: 30.6% | subjects reporting any treatment emergent adverse events [3]: 33 subjects

Compound: Oc1cccc(Nc2ncc(F)c(Nc3cccc(O)c3)n2)c1 [R112]
absolute difference over placebo [4]: 9% | improvement from baseline measurements (prior to drug initiation) [4]: up to 38% | relative improvement over placebo [4]: greater than 20% | symptoms most closely associated with chronic nasal congestion (e.g., stuffy nose), over placebo [4]: improved

Compound: Clc1ccc2c(c1)CCc1cccnc1C2=C1CCNCC1 [DL, desloratadine]
least square mean change from baseline in the average AM/PM PRIOR post nasal drip score, percent ([2]; DL 2.5 mg BID): −24.8% | least square mean change from baseline in the average AM/PM PRIOR post nasal drip score ([2]; DL 2.5 mg BID): −0.68 | total symptom score excluding post nasal drip, treatment difference vs. placebo ([2]; DL 2.5 mg BID, 7 days): 0.71 point | anterior rhinorrhea treatment difference vs. placebo ([2]; 7 days): 0.03 points
